According to US20250326739A1, “CD38 MODULATORS AND USES THEREOF” (Aeovian Pharmaceuticals, Inc., priority 2022, published 2025):
Counter-ions that a name gives are not always drawn.

Columns and labels:
mouse CD38 = mouse CD38 (Mus musculus (Mouse), UniProt P56528); assay: NAD+ cyclase activity assay with mouse recombinant CD38 protein; type: biochemical; details: 0.6 nM mouse CD38, 15.8 μM e-NAD substrate, fluorescence read-out
Protocol: (§1) Example 5: NAD^+ Cydase Activity Assay with Human or Mouse Recombinant CD38 Protein
(§2) The following assay was used to determine the ability of compounds of the invention to inhibit the hydrolysis of NAD^+ by the human or mouse enzyme, CD38.
(§3) Reaction buffer: 40 mM HEPES/NaOH pH 7.5, 250 mM sucrose, 0.01% Tween
(§4) Final concentrations: 0.6 nM mouse CD38 (4947-AC, Bio-Techne GmbH) 1.9 nM human CD38 (AVI2404, Bio-Techne GmbH)
(§5) Substrate: 15.8 μM Nicotinamide 1,N6-ethenoadenine dinucleotide (E-NAD)
(§6) Read-out: Fluorescence intensity (extinction 300 nm/emission 410 nm)
(§7) Required reaction buffer, required CD38 concentration in reaction buffer and required e-NAD concentration in reaction buffer were prepared. Thereafter, 8 μL of CD38 in reaction buffer were added to High Control and compound concentration wells in 384 well plate (Corning #4514, 384 well, nonbinding surface, low volume, round bottom) and 8 μL of reaction buffer to Low Control. Compound dilutions were transferred via pintool technology that transfers 42.5 nL compound dilutions (12-point dose-response with factor three dilutions in 100% DMSO) well-to-well. Plate was subsequently shaken for 15 s at 1450 rpm and sealed for incubation for 30 min at room temperature. Thereafter, 2 μL of e-NAD in reaction buffer were added with Integra Voyager. After shaking for 15 s at 1450 rpm, plate was sealed, and assay signal was measured continuously with PHERAstar® fluorescence intensity module (extinction 300 nm/emission 410 nm).
(§8) Dose-response curves were constructed using twelve-point factor three dilutions in triplicates per plate. High control (full enzyme activity) was set to assay signal of CD38 and e-NAD in presence of vehicle (DMSO) and Low control (full enzyme inhibition) was set to assay signal of e-NAD and vehicle (DMSO) in absence of CD38. For data analysis, fluorescent signal of traces corresponding to each compound concentration and High and Low control was monitored over time. Each run, High Control (full enzyme activity) was fitted to Linear equation via GraphPad Prism to determine CD38 activity from the slope and determine the time interval of linear phase of reaction to account for minor fluctuations. Thereafter, slopes of all compound concentrations were determined via fitting to same linear equation (GraphPad Prism) over the same time interval as determined for High control. Percentage inhibition was calculated via normalization to High and Low Control via the equation: %−inhibition=100*(1−((Sample−Low control)/(High control−Low control))) Half maximal inhibitory concentration (IC50) values are yielded from the inflection point of the corresponding curve by fitting of resulting percentage inhibition values to standard equation (4 Parameter Logistic Model or Sigmoidal Dose-Response Model) via Excel Fit. Unless otherwise stated, fitting of curves was fixed to 100%-inhibition and unlocked for 0%-inhibition.

human CD38 = human CD38 (Homo sapiens (Human), UniProt P28907); assay: NAD+ cyclase activity assay with human recombinant CD38 protein; type: biochemical; details: 1.9 nM human CD38, 15.8 μM e-NAD substrate, fluorescence read-out
Chain of human CD38 (P28907 whole entry): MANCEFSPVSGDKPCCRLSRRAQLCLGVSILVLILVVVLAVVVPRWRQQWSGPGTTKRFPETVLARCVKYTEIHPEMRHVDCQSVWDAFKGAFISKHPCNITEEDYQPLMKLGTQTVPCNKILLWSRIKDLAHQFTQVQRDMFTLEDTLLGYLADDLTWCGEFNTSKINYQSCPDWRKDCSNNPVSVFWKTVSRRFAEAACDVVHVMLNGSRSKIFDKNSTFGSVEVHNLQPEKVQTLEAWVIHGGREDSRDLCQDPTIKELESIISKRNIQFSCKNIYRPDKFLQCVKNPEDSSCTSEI
Protocol: as §1, §2, §3, §4, §5, §6, §7, §8

Chain of mouse CD38 (P56528 whole entry): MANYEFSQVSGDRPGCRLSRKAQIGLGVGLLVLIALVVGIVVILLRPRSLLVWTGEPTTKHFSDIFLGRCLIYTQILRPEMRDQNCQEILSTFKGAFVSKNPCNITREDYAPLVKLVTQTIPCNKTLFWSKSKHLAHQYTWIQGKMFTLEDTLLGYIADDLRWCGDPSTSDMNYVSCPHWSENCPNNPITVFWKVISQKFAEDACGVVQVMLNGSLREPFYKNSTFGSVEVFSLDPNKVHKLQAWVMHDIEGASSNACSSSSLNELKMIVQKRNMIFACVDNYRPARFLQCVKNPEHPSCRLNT

Row | Structure (SMILES) | IC50 (mouse CD38) [µM] | IC50 (human CD38) [µM]
1 | Cc1cc(C(=O)NC2CCCCCC2)nc(-n2ccnc2)c1 [Compound 34A, N-Cycloheptyl-6-(1H-imidazol-1-yl)-4-methylpicolinamide] | 0.001 to 0.01 | < 0.03
2 | CNC(=O)N1CCC(NC(=O)c2cc(C)cc(-n3ccnc3)n2)CC1 [Compound 22A, 6-(1H-Imidazol-1-yl)-4-methyl-N-(1-(methylcarbamoyl)piperidin-4-yl)picolinamide] | 0.001 to 0.01 | < 0.03
3 | CS(=O)(=O)N1CCC(NC(=O)c2cccc(-n3ccnc3)n2)CC1 [Compound 16A, 6-(1H-Imidazol-1-yl)-N-(1-(methylsulfonyl)piperidin-4-yl)picolinamide] | 0.001 to 0.01 | 0.03 to 0.1
4 | O=C(N[C@@H]1CCCOC1)c1cc(C(F)(F)F)nc(-n2ccnc2)n1 [Compound 76A, (R)-2-(1H-Imidazol-1-yl)-N-(tetrahydro-2H-pyran-3-yl)-6-(trifluoromethyl)pyrimidine-4-carboxamide] | 0.001 to 0.01 | 0.03 to 0.1
5 | O=C(N[C@@H]1CCCOC1)c1ccnc(-n2ccnc2)n1 [Compound 80A, (R)-2-(1H-Imidazol-1-yl)-N-(tetrahydro-2H-pyran-3-yl)pyrimidine-4-carboxamide] | 0.001 to 0.01 | < 0.03
6 | Cc1cc(C(=O)N[C@@H]2CCCOC2)nc(-n2ccnc2)c1 [Compound 44A, (R)-6-(1H-Imidazol-1-yl)-4-methyl-N-(tetrahydro-2H-pyran-3-yl)picolinamide] | < 0.001 | < 0.03
7 | Cc1cc(C(=O)N[C@@H]2CCNC2)nc(-n2ccnc2)c1 [Compound 52A, (R)-6-(1H-Imidazol-1-yl)-4-methyl-N-(pyrrolidin-3-yl)picolinamide dihydrochloride] | > 0.1 | > 1
8 | Cc1cc(C(=O)N[C@@H]2CCN(C(=O)OC(C)(C)C)C2)nc(-n2ccnc2)c1 [Compound 43A, tert-Butyl (R)-3-(6-(1H-imidazol-1-yl)-4-methylpicolinamido)pyrrolidine-1-carboxylate] | 0.001 to 0.01 | < 0.03
9 | O=C(N[C@@H]1CCCOC1)c1cc(C(F)(F)F)cc(-n2ccnc2)n1 [Compound 62A, (R)-6-(1H-imidazol-1-yl)-N-(tetrahydro-2H-pyran-3-yl)-4-(trifluoromethyl)picolinamide] | 0.001 to 0.01 | < 0.03
10 | Cc1ccc(-n2ccnc2)nc1C(=O)NC1CCN(S(C)(=O)=O)CC1 [Compound 79A, 6-(1H-Imidazol-1-yl)-3-methyl-N-(1-(methylsulfonyl)piperidin-4-yl)picolinamide] | 0.01 to 0.1 | 0.1 to 1
11 | Cc1cc(C(=O)N[C@@H]2CCCN(C)C2=O)nc(-n2ccnc2)c1 [Compound 56A, (R)-6-(1H-Imidazol-1-yl)-4-methyl-N-(1-methyl-2-oxopiperidin-3-yl)picolinamide] | > 0.1 | > 1
12 | Cc1cc(C(=O)NC2CCOCC2)nc(-n2ccnc2)c1 [Compound 32A, 6-(1H-Imidazol-1-yl)-4-methyl-N-(tetrahydro-2H-pyran-4-yl)picolinamide] | 0.001 to 0.01 | 0.03 to 0.1
13 | Cc1cc(C(=O)N[C@H]2CCCS(=O)(=O)C2)nc(-n2ccnc2)c1 [Compound 84A, (S)—N-(1,1-Dioxidotetrahydro-2H-thiopyran-3-yl)-6-(1H-imidazol-1-yl)-4-methylpicolinamide] | 0.01 to 0.1 | 0.1 to 1
14 | CC(=O)N1CCC(NC(=O)c2cc(C)cc(-n3ccnc3)n2)CC1 [Compound 10A, N-(1-Acetylpiperidin-4-yl)-6-(1H-imidazol-1-yl)-4-methylpicolinamide] | 0.001 to 0.01 | 0.03 to 0.1
15 | Cc1cc(C(=O)NC2CCN(S(C)(=O)=O)CC2)nc(-n2ccnc2)c1 [Compound 1A, 6-(1H-Imidazol-1-yl)-4-methyl-N-(1-(methylsulfonyl)piperidin-4-yl)picolinamide] | 0.001 to 0.01 | 0.03 to 0.1
16 | Cc1cc(C(=O)NC2CCC2)nc(-n2ccnc2)c1 [Compound 12A, N-Cyclobutyl-6-(1H-imidazol-1-yl)-4-methylpicolinamide] | 0.001 to 0.01 | 0.03 to 0.1
17 | Cc1cc(C(=O)N[C@H]2CCS(=O)(=O)C2)nc(-n2ccnc2)c1 [Compound 55A, (S)—N-(1,1-Dioxidotetrahydrothiophen-3-yl)-6-(1H-imidazol-1-yl)-4-methylpicolinamide] | 0.001 to 0.01 | 0.1 to 1
18 | Cc1cc(C(=O)N[C@H]2CCCN(C(=O)OC(C)(C)C)C2)nc(-n2ccnc2)c1 [Compound 47A, tert-Butyl (S)-3-(6-(1H-imidazol-1-yl)-4-methylpicolinamido)piperidine-1-carboxylate] | 0.001 to 0.01 | 0.1 to 1
19 | Cc1cc(C(=O)N[C@@H]2CCC(=O)NC2=O)nc(-n2ccnc2)c1 [Compound 63A, (R)—N-(2,6-Dioxopiperidin-3-yl)-6-(1H-imidazol-1-yl)-4-methylpicolinamide] | 0.01 to 0.1 | > 1
20 | Cc1cc(C(=O)N[C@@H]2CCC(C)(C)OC2)nc(-n2ccnc2)c1 [Compound 64A, (R)—N-(6,6-Dimethyltetrahydro-2H-pyran-3-yl)-6-(1H-imidazol-1-yl)-4-methylpicolinamide] | 0.001 to 0.01 | 0.03 to 0.1
21 | Cc1cc(C(=O)NC2CCN(S(=O)(=O)C3COC3)CC2)nc(-n2ccnc2)c1 [Compound 87A, 6-(1H-Imidazol-1-yl)-4-methyl-N-(1-(oxetan-3-ylsulfonyl)piperidin-4-yl)picolinamide] | 0.001 to 0.01 | < 0.03
22 | Cc1cc(C(=O)N[C@@H]2CCCN(C(=O)OC(C)(C)C)C2)nc(-n2ccnc2)c1 [Compound 49A, tert-Butyl (R)-3-(6-(1H-imidazol-1-yl)-4-methylpicolinamido)piperidine-1-carboxylate] | 0.001 to 0.01 | 0.03 to 0.1
23 | Cc1cc(C(=O)N[C@@H]2CCCN(C3COC3)C2)nc(-n2ccnc2)c1 [Compound 83A, (R)-6-(1H-Imidazol-1-yl)-4-methyl-N-(1-(oxetan-3-yl)piperidin-3-yl)picolinamide] | 0.01 to 0.1 | > 1
24 | Cc1cc(C(=O)NC2CCN(S(=O)(=O)C3CCCCC3)CC2)nc(-n2ccnc2)c1 [Compound 5A, N-(1-(Cyclohexylsulfonyl)piperidin-4-yl)-6-(1H-imidazol-1-yl)-4-methylpicolinamide] | 0.001 to 0.01 | < 0.03
25 | Cc1cc(C(=O)NC2CCC(C)(C)OC2)nc(-n2ccnc2)c1 (stereo not drawn) [Compound 29A, N-(6,6-Dimethyltetrahydro-2H-pyran-3-yl)-6-(1H-imidazol-1-yl)-4-methylpicolinamide] | 0.001 to 0.01 | 0.03 to 0.1
26 | Cc1cc(C(=O)NC2CCCOC2)nc(-n2ccnc2)c1 (stereo not drawn) [Compound 9A, 6-(1H-Imidazol-1-yl)-4-methyl-N-(tetrahydro-2H-pyran-3-yl)picolinamide] | 0.001 to 0.01 | < 0.03
27 | Cc1cc(C(=O)NC2COCC(F)(F)C2)nc(-n2ccnc2)c1 (stereo in doubt) [Compound 67A, (R)—N-(5,5-Ddifluorotetrahydro-2H-pyran-3-yl)-6-(1H-imidazol-1-yl)-4-methylpicolinamide] | 0.001 to 0.01 | 0.1 to 1
